Experimental data published in patent US20210300924A1, “5-[6-[[3-(4,5,6,7-TETRAHYDROPYRAZOLO[4,3-C]PYRIDIN-1-YL)AZETIDIN-1-YL]METHYL]MORPHOLIN-4-YL]QUINOLINE-8-CARBONITRILE DERIVATIVES AND SIMILAR COMPOUNDS AS TLR7-9 ANTAGONISTS FOR TREATING SYSTEMIC LUPUS ERYTHEMATOSUS” (Hoffmann-La Roche Inc., priority 2018, published 2021).

Assays:
TLR9 = target: T1, TLR9 (Homo sapiens, UniProt Q9NR96); assay: HEK293-Blue-hTLR-9 cells assay; format: cell-based; set-up: host or cells: HEK293 (HEK-Blue hTLR9); conditions: HEK293-Blue-hTLR9 cells, ODN2006 stimulation, 20 hrs, SEAP reporter; read-out: HEK/hTLR9 IC50
T1 sequence (Q9NR96 26-1032): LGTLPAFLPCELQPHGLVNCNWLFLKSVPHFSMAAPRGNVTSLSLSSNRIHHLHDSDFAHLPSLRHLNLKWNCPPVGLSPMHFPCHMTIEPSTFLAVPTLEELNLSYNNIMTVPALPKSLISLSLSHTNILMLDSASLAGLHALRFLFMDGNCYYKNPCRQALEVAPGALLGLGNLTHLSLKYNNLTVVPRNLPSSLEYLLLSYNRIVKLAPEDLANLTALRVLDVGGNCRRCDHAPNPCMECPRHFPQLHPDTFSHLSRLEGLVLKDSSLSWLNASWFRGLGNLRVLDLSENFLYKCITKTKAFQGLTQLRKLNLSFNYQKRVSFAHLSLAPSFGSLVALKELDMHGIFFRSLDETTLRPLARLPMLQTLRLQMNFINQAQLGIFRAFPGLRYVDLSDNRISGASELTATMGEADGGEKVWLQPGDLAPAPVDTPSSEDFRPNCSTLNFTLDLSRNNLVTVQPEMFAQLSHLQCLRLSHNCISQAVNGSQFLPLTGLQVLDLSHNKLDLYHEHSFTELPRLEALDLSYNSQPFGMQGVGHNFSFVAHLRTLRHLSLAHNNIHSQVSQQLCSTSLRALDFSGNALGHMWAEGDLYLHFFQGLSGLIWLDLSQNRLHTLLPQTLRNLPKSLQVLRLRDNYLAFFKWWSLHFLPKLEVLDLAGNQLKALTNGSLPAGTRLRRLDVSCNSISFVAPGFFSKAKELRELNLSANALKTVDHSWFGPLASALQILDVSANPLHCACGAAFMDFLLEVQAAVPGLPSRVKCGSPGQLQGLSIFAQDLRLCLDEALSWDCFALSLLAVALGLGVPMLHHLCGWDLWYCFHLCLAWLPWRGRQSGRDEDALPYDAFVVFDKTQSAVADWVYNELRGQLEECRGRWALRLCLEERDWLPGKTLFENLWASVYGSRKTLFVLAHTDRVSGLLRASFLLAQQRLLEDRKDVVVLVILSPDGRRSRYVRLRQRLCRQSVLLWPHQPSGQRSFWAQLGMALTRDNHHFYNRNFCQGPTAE
Text: HEK293-Blue-hTLR-9 Cells Assay:
A stable HEK293-Blue-hTLR-9 cell line was purchased from InvivoGen (Cat. #: hkb-htlr9, San Diego, Calif., USA). These cells were originally designed for studying the stimulation of human TLR9 by monitoring the activation of NF-κB. A SEAP (secreted embryonic alkaline phosphatase) reporter gene was placed under the control of the IFN-β minimal promoter fused to five NF-κB and AP-1-binding sites. The SEAP was induced by activating NF-κB and AP-1 via stimulating HEK-Blue hTLR9 cells with TLR9 ligands. Therefore the reporter expression was declined by TLR9 antagonist under the stimulation of a ligand, such as ODN2006 (Cat. #: tlr1-2006-1, Invivogen, San Diego, Calif., USA), for incubation of 20 hrs. The cell culture supernatant SEAP reporter activity was determined using QUANTI-Blue™ kit (Cat. #: rep-01, Invivogen, San Diego, Calif., USA) at a wavelength of 640 nm, a detection medium that turns purple or blue in the presence of alkaline phosphatase.
HEK293-Blue-hTLR9 cells were incubated at a density of 250,000-450,000 cells/mL in a volume of 170 μL in a 96-well plate in Dulbecco's Modified Eagle's medium (DMEM) containing 4.5 g/L glucose, 50 U/mL penicillin, […], 2 mM L-glutamine, 10% (v/v) heat-inactivated fetal bovine serum with addition of 20 μL test compound in a serial dilution in the presence of final DMSO at 1% and 10 μL of 20 uM ODN2006 in above DMEM, perform incubation under 37° C. in a CO2 incubator for 20 hrs. Then 20 μL of the supernatant from each well was incubated with 180 μL Quanti-blue substrate solution at 37° C. for 2 h and the absorbance was read at 620-655 nm using a spectrophotometer. The signaling pathway that TLR9 activation leads to downstream NF-κB activation has been widely accepted, and therefore similar reporter assay was modified for evaluating TLR9 antagonist.

[1] = Human microsome stability assay; format: in vitro ADME; conditions: 1 μM test compound, 0.5 mg/mL liver microsomal protein, 37° C., up to 30 minutes; 6.2 = detection limit
Description: Human Microsome Stability Assay
The human microsomal stability assay is used for early assessment of metabolic stability of a test compound in human liver microsomes.
Human liver microsomes (Cat. NO.: 452117, Corning, USA; Cat. NO.:H2610, Xenotech, USA) were preincubated with test compound for 10 minutes at 37° C. in 100 mM potassium phosphate buffer, pH 7.4. The reactions were initiated by adding NADPH regenerating system. The final incubation mixtures contained 1 μM test compound, 0.5 mg/mL liver microsomal protein, 1 mM MgCl2, 1 mM NADP, 1 unit/mL isocitric dehydrogenase and 6 mM isocitric acid in 100 mM potassium phosphate buffer, pH 7.4. After incubation times of 0, 3, 6, 9, 15 and 30 minutes at 37° C., 300 μL of cold acetonitrile (including internal standard) was added to 100 μL incubation mixture to terminate the reaction. Following precipitation and centrifugation, the amount of compound remaining in the samples were determined by LC-MS/MS. Controls of no NADPH regenerating system at zero and 30 minutes were also prepared and analyzed.

Row | SMILES | IC50 (TLR9) [nM] | Clearance of Human microsome [1] [mL/min/kg]
1 | C[C@@H]1CN(c2ccc(C#N)c3ncccc23)C[C@H](CN2CC(n3cc4c(n3)[C@@H](C)CNC4)C2)O1 (single isomer, unassigned) [Example 26] | 89 | –
2 | C[C@@H]1Cc2cnn(C3CN(C[C@H]4CN(c5ccc(C#N)c6ncccc56)C[C@@H](C)O4)C3)c2CN1 (single isomer, unassigned) [Example 28] | 71 | 6.2
3 | C[C@@H]1Cc2cn(C3CN(C[C@H]4CN(c5ccc(C#N)c6ncccc56)C[C@@H](C)O4)C3)nc2CN1 (single isomer, unassigned) [Example 30] | 57 | 6.2
4 | C[C@@H]1CN(c2ccc(C#N)c3ncccc23)C[C@H](CN2CC(n3ncc4c3[C@@H](C)NCC4)C2)O1 (single isomer, unassigned) [Example 31] | 61 | –
5 | C[C@@H]1CN(c2ccc(C#N)c3ncccc23)C[C@H](CN2CC(n3ncc4c3[C@H](C)NCC4)C2)O1 (single isomer, unassigned) [Example 32] | 62 | –
6 | CCN1CCc2cnn(C3CN(C[C@H]4CN(c5ccc(C#N)c6ncccc56)C[C@@H](C)O4)C3)c2C1 [Example 6, 5-[(2S,6R)-2-[[3-(6-ethyl-5,7-dihydro-4H-pyrazolo[3,4-c]pyridin-1-yl)azetidin-1-yl]methyl]-6-methyl-morpholin-4-yl]quinoline-8-carbonitrile] | 153 | –
7 | C[C@@H]1CN(c2ccc(C#N)c3ncccc23)C[C@H](CN2CC(n3ncc4c3CNC4)C2)O1 [Example 10, 5-[(2S,6R)-2-[[3-(5,6-dihydro-4H-pyrrolo[3,4-c]pyrazol-1-yl)azetidin-1-yl]methyl]-6-methyl-morpholin-4-yl]quinoline-8-carbonitrile] | 143 | –
8 | Cc1nn(C2CN(C[C@H]3CN(c4ccc(C#N)c5ncccc45)C[C@@H](C)O3)C2)c2c1CNCC2 [Example 12, 5-[(2R,6S)-2-methyl-6-[[3-(3-methyl-4,5,6,7-tetrahydropyrazolo[4,3-c]pyridin-1-yl)azetidin-1-yl]methyl]morpholin-4-yl]quinoline-8-carbonitrile] | 78 | –
9 | Cc1c2c(nn1C1CN(C[C@H]3CN(c4ccc(C#N)c5ncccc45)C[C@@H](C)O3)C1)CCNC2 [Example 13, 5-[(2R,6S)-2-methyl-6-[[3-(3-methyl-4,5,6,7-tetrahydropyrazolo[4,3-c]pyridin-2-yl)azetidin-1-yl]methyl]morpholin-4-yl]quinoline-8-carbonitrile] | 118 | –
10 | Cc1nn(C2CN(C[C@H]3CN(c4ccc(C#N)c5ncccc45)C[C@@H](C)O3)C2)c2c1CN(C)CC2 [Example 14, 5-[(2S,6R)-2-[[3-(3,5-dimethyl-6,7-dihydro-4H-pyrazolo[4,3-c]pyridin-1-yl)azetidin-1-yl]methyl]-6-methyl-morpholin-4-yl]quinoline-8-carbonitrile] | 276 | –

Results, then the compound that gave them:

Row | IC50 (TLR9) [nM] | Clearance of Human microsome [1] [mL/min/kg] | SMILES
11 | 82 | – | C[C@@H]1CN(c2ccc(C#N)c3ncccc23)C[C@H](CN2CC(n3cc4c(n3)[C@H](C)CNC4)C2)O1 (single isomer, unassigned) [Example 25]
12 | 65 | – | C[C@@H]1CN(c2ccc(C#N)c3ncccc23)C[C@H](CN2CC(n3ncc4c3CN[C@@H](C)C4)C2)O1 (single isomer, unassigned) [Example 27]
13 | 72 | 6.6 | C[C@@H]1CN(c2ccc(C#N)c3ncccc23)C[C@H](CN2CC(n3cc4c(n3)CN[C@@H](C)C4)C2)O1 (single isomer, unassigned) [Example 29]
14 | 34 | – | C[C@@H]1CN(c2ccc(C#N)c3ncccc23)C[C@H](CN2CC(n3cc4c(n3)[C@@H](C)NCC4)C2)O1 (single isomer, unassigned) [Example 33]
15 | 36 | 6.4 | C[C@@H]1CN(c2ccc(C#N)c3ncccc23)C[C@H](CN2CC(n3cc4c(n3)[C@H](C)NCC4)C2)O1 (single isomer, unassigned) [Example 34]
16 | 51 | – | C[C@@H]1CN(c2ccc(C#N)c3ncccc23)C[C@H](CN2CC(n3ncc4c3CNCC4)C2)O1 [Example 3, 5-[(2R,6S)-2-methyl-6-[[3-(4,5,6,7-tetrahydropyrazolo[3,4-c]pyridin-1-yl)azetidin-1-yl]methyl]morpholin-4-yl]quinoline-8-carbonitrile]
17 | 116 | – | CCN1CCc2cn(C3CN(C[C@H]4CN(c5ccc(C#N)c6ncccc56)C[C@@H](C)O4)C3)nc2C1 [Example 7, 5-[(2S,6R)-2-[[3-(6-ethyl-5,7-dihydro-4H-pyrazolo[3,4-c]pyridin-2-yl)azetidin-1-yl]methyl]-6-methyl-morpholin-4-yl]quinoline-8-carbonitrile]
18 | 125 | – | CC(C)N1CCc2cnn(C3CN(C[C@H]4CN(c5ccc(C#N)c6ncccc56)C[C@@H](C)O4)C3)c2C1 [Example 8, 5-[(2S,6R)-2-[[3-(6-isopropyl-5,7-dihydro-4H-pyrazolo[3,4-c]pyridin-1-yl)azetidin-1-yl]methyl]-6-methyl-morpholin-4-yl]quinoline-8-carbonitrile]
19 | 172 | – | CC(C)N1CCc2cn(C3CN(C[C@H]4CN(c5ccc(C#N)c6ncccc56)C[C@@H](C)O4)C3)nc2C1 [Example 9, 5-[(2S,6R)-2-[[3-(6-isopropyl-5,7-dihydro-4H-pyrazolo[3,4-c]pyridin-2-yl)azetidin-1-yl]methyl]-6-methyl-morpholin-4-yl]quinoline-8-carbonitrile]
20 | 128 | – | Cc1c2c(nn1C1CN(C[C@H]3CN(c4ccc(C#N)c5ncccc45)C[C@@H](C)O3)C1)CCN(C)C2 [Example 15, 5-[(2S,6R)-2-[[3-(3,5-dimethyl-6,7-dihydro-4H-pyrazolo[4,3-c]pyridin-2-yl)azetidin-1-yl]methyl]-6-methyl-morpholin-4-yl]quinoline-8-carbonitrile]
21 | 98 | – | C[C@@H]1CN(c2ccc(C#N)c3ncccc23)C[C@H](CN2CC(n3cc4c(n3)C(C)(C)CNC4)C2)O1 [Example 24, 5-[(2S,6R)-2-[[3-(7,7-dimethyl-5,6-dihydro-4H-pyrazolo[4,3-c]pyridin-2-yl)azetidin-1-yl]methyl]-6-methyl-morpholin-4-yl]quinoline-8-carbonitrile]
